Peptide text beside a SMILES is read from it. * marks the point of attachment. Dansyl = CN(C)c1cccc2c(S(=O)(=O)*)cccc12
Experiment: Effect of heparin-binding peptides on cellular viability (CellTiter 96 AQueous colorimetric metabolic assay)
Details: mouse, 3T3 fibroblasts
Protocol: 3T3 fibroblasts were incubated with various doses of W-PBD1 () and dG-PBD1 (▪) peptide (n=3). Viability was measured using a colorimetric metabolic assay based on the reduction of a tetrazolium salt into a formazan product.
In one example to show toxicity of two heparin binding peptides, 3T3 fibroblasts were treated with various concentrations of two different heparin binding peptides. Cell viability was assessed using the CellTiter 96® AQueous reagent (Promega, Madison, Wis.) after 1 hour at 37° C. in a humidified incubator with 5% CO2, following the manufacturer's protocol, incorporated by reference herein. Briefly, 3T3 fibroblasts were cultured at 37° C. in a humidified incubator with 5% CO2 using Dulbecco's modified Eagle Medium (DMEM) containing 10% fetal bovine serume (FBS), pen/strep, and 2 mM glutamine (Invitrogen). Serial dilutions of dG-PGB1 and W-PBD-1 using PBS as the diluent, and 75 μl of the dilutions were transferred in triplicate into the wells of a 96-well microtiter plate. […] Finally, the absorbance at 490 mm was measured with a microplate spectrophotometer. […] The amount of viable cells was determined by subtracting the absorbance readings of media containing blank wells from every other well and comparing the ratio of the absorbance reading for each sample with that of the positive control.

Structure (SMILES) | CC50 at 1 h
CC(C)C[C@H](NC(=O)[C@H](CCCCN)NC(=O)[C@H](C)NC(=O)[C@H](Cc1ccccc1)NC(=O)[C@H](C)NC(=O)[C@H](CCCCN)NC(=O)[C@@H](N)Cc1c[nH]c2ccccc12)C(=O)N[C@@H](C)C(=O)N[C@@H](C)C(=O)N[C@@H](CCCNC(=N)N)C(=O)N[C@@H](CC(C)C)C(=O)N[C@@H](Cc1ccc(O)cc1)C(=O)N[C@@H](CCCNC(=N)N)C(=O)N[C@@H](CCCCN)C(=O)N[C@@H](C)C(=O)NCC(=O)N[C@@H](CS)C(=O)O [W-PBD1, WKAFAKLAARLYRKAGC] (H-WKAFAKLAARLYRKAGC-OH; N-terminus and C-terminus assumed) | 58.1 ± 7.3 µM
CC(C)C[C@H](NC(=O)[C@H](CCCCN)NC(=O)[C@H](C)NC(=O)[C@H](Cc1ccccc1)NC(=O)[C@H](C)NC(=O)[C@H](CCCCN)NC(=O)CNS(=O)(=O)c1cccc2c(N(C)C)cccc12)C(=O)N[C@@H](C)C(=O)N[C@@H](C)C(=O)N[C@@H](CCCNC(=N)N)C(=O)N[C@@H](CC(C)C)C(=O)N[C@@H](Cc1ccc(O)cc1)C(=O)N[C@@H](CCCNC(=N)N)C(=O)N[C@@H](CCCCN)C(=O)N[C@@H](C)C(=O)NCC(=O)N[C@@H](CS)C(=O)O [dG-PBD1, dansyl-GKAFAKLAARLYRKAGC] (Dansyl-GKAFAKLAARLYRKAGC-OH) | 19.3 ± 1.1 µM
